PubChem BioAssay AID1259407 (Chemical Carcinogenesis Research Information System (CCRIS), 2018)
The source made the active and inactive calls. The rule behind the calls is not given here.

Tested on: CCRIS mutagenicity, Ames/micronucleus/aberration tests
Assay: CCRIS mutagenicity studies
[1] = Test System: AMES SALMONELLA TYPHIMURIUM, Strain/Indicator: TA98, Metabolic Activation: NONE, Method: STANDARD PLATE
[2] = Test System: AMES SALMONELLA TYPHIMURIUM, Strain/Indicator: TA98, Metabolic Activation: RAT, LIVER, S-9, AROCLOR 1254, Method: STANDARD PLATE
[3] = Test System: AMES SALMONELLA TYPHIMURIUM, Strain/Indicator: TA100, Metabolic Activation: NONE, Method: STANDARD PLATE
[4] = Test System: AMES SALMONELLA TYPHIMURIUM, Strain/Indicator: TA100, Metabolic Activation: RAT, LIVER, S-9, AROCLOR 1254, Method: STANDARD PLATE

Measured: mutagenic call

CN(C)c1ccc(N=Nc2cccnc2)cc1
inactive: [1] inactive; negative | [2] inactive; negative | [3] inactive; negative | [4] inactive; negative | Test System: AMES SALMONELLA TYPHIMURIUM, Strain/Indicator: TA1535, Metabolic Activation: NONE, Method: STANDARD PLATE inactive; negative | Test System: AMES SALMONELLA TYPHIMURIUM, Strain/Indicator: TA1535, Metabolic Activation: RAT, LIVER, S-9, AROCLOR 1254, Method: STANDARD PLATE inactive; negative | Test System: AMES SALMONELLA TYPHIMURIUM, Strain/Indicator: TA1537, Metabolic Activation: NONE, Method: STANDARD PLATE inactive; negative | Test System: AMES SALMONELLA TYPHIMURIUM, Strain/Indicator: TA1537, Metabolic Activation: RAT, LIVER, S-9, AROCLOR 1254, Method: STANDARD PLATE inactive; negative | Test System: AMES SALMONELLA TYPHIMURIUM, Strain/Indicator: TA1538, Metabolic Activation: NONE, Method: STANDARD PLATE inactive; negative | Test System: AMES SALMONELLA TYPHIMURIUM, Strain/Indicator: TA1538, Metabolic Activation: RAT, LIVER, S-9, AROCLOR 1254, Method: STANDARD PLATE inactive; negative

c1ccc(N2CCNCC2)cc1
inactive: Test System: AMES SALMONELLA TYPHIMURIUM, Strain/Indicator: TA97, Metabolic Activation: HAMSTER, LIVER, S-9, AROCLOR 1254, Method: PREINCUBATION inactive; negative | Test System: AMES SALMONELLA TYPHIMURIUM, Strain/Indicator: TA97, Metabolic Activation: NONE, Method: PREINCUBATION inactive; negative | Test System: AMES SALMONELLA TYPHIMURIUM, Strain/Indicator: TA97, Metabolic Activation: RAT, LIVER, S-9, AROCLOR 1254, Method: PREINCUBATION inactive; negative | Test System: AMES SALMONELLA TYPHIMURIUM, Strain/Indicator: TA98, Metabolic Activation: HAMSTER, LIVER, S-9, AROCLOR 1254, Method: PREINCUBATION inactive; negative | Test System: AMES SALMONELLA TYPHIMURIUM, Strain/Indicator: TA98, Metabolic Activation: NONE, Method: PREINCUBATION inactive; negative | Test System: AMES SALMONELLA TYPHIMURIUM, Strain/Indicator: TA98, Metabolic Activation: RAT, LIVER, S-9, AROCLOR 1254, Method: PREINCUBATION inactive; negative | Test System: AMES SALMONELLA TYPHIMURIUM, Strain/Indicator: TA100, Metabolic Activation: HAMSTER, LIVER, S-9, AROCLOR 1254, Method: PREINCUBATION inactive; negative | Test System: AMES SALMONELLA TYPHIMURIUM, Strain/Indicator: TA100, Metabolic Activation: NONE, Method: PREINCUBATION inactive; negative | Test System: AMES SALMONELLA TYPHIMURIUM, Strain/Indicator: TA100, Metabolic Activation: RAT, LIVER, S-9, AROCLOR 1254, Method: PREINCUBATION inactive; negative

O=[N+]([O-])c1ccc2[nH]ncc2c1
active: Test System: AMES SALMONELLA TYPHIMURIUM, Strain/Indicator: TA98, Metabolic Activation: HAMSTER, LIVER, S-9, AROCLOR 1254, Method: STANDARD PLATE active; positive | [1] active; positive | [2] active; positive | Test System: AMES SALMONELLA TYPHIMURIUM, Strain/Indicator: TA100, Metabolic Activation: HAMSTER, LIVER, S-9, AROCLOR 1254, Method: STANDARD PLATE active; positive | [3] active; positive | [4] active; positive
inactive: Test System: MOUSE LYMPHOMA, Strain/Indicator: L5178Y (TK+/TK-), Metabolic Activation: NONE, Method: SUSPENSION/PLATE inactive; negative. reevaluation of results: negative | Test System: MOUSE LYMPHOMA, Strain/Indicator: L5178Y (TK+/TK-), Metabolic Activation: RAT, LIVER, S-9, AROCLOR 1254, Method: SUSPENSION/PLATE inactive; negative. reevaluation of results: negative
